Patent publication US20240043403A1, “HETEROARYL CARBOXAMIDE COMPOUND” (Astellas Pharma Inc., priority 2020, published 2024)
pIC50: −log10 of the molar value. Where a name gives a salt, the structure may show the parent alone.

Tests used:
[1] = test system: IL-2 production in Jurkat E6.1 cells; test: Evaluation of IL-2 production in human T-cell leukemia cell line Jurkat E6.1 (TCR stimulation anti-CD3/anti-CD28); assay type: cell-based; details: Jurkat E6.1, 24 h, concentration at which IL-2 increased to 10 times the solvent control, Jurkat E6.1, anti-CD3/anti-CD28, 24 hours
Method: Test Example 2. Evaluation of Il-2 Production in Human T-Cell Leukemia Cell Line Jurkat E6.1
The effect of the test compound on the IL-2 production by T-cell receptor (TCR) stimulation (anti-CD3/anti-CD28) in Jurkat E6.1 cells (ECACC, 88042803) was evaluated.
A 5 μg/mL anti-CD3 antibody (eBioscience, Inc., OKT3 clone) diluted with phosphate buffer saline (PBS) was added to a 96-well plate (Iwaki & Co., Ltd.) at 50 μL/well, and left standing at 4° C. for 12 hours or more to provide an anti-CD3 antibody-coated plate in advance. When the plate was used for experiments, the plate was washed with 200 μL of PBS once, an anti-CD28 antibody (eBioscience, Inc., 28.2 clone) diluted to a concentration of 10 μg/mL with a culture medium (RPMI1640 (Sigma-Aldlich Co. LLC.) containing 10% fetal bovine serum (Hyclone Laboratories, Inc.)) was then added at 10 μL/well, and the plate was used for assay as a culture plate for TCR stimulation.
Subsequently, the test compound was mixed with Jurkat E6.1 cells in such a manner that an intended final concentration was obtained, and the mixture was plated at 90 μL/well so that the number of cells per well was 1×10^5(that is, finally the culture was performed at 1×10^5 cells/100 μL/well). For culture cell conditions, the culture was performed at 37° C. in the presence of 5% CO2 using RPMI1640 medium containing 10% fatal bovine serum.
After 24 hours, the culture supernatant was collected, and IL-2 was quantitatively determined using AlphaLISA human IL2 Immunoassay Research Kit (PerkinElmer, Inc.). The IL-2 measurement was performed under Alpha Screen standard setting conditions (the fluorescence intensity at 570 nm was measured with an excitation wavelength of 680 nm) using EnVision 2104-0010 and EnVision 2104-0020 (PerkinElmer, Inc.). The IL-2 quantitative value of the solvent treatment control was set to 1, and the test compound concentration at which the IL-2 quantitative value of the test compound treatment sample increased to 10 times the IL-2 quantitative value of the control (EC10fold) was calculated by inverse estimation with the aid of Sigmoid-Emax model non-linear regression analysis. […] In the table, Ex represents the number of each Example described below.

B16-F1 cells = test: Evaluation of antitumor effect in syngeneic mouse model bearing mouse melanoma cell line B16-F1; assay type: in vivo; details: po, 240 h, C57BL/6J mice bearing B16-F1, read-out: Antitumor effect (relative tumor growth inhibition); for inhibition in vivo at 0.3 mg/kg: 0.3 mg/kg orally once daily for 10 days
Method: Test Example 3: Evaluation of Antitumor Effect in Syngeneic Mouse Model Bearing Mouse Melanoma Cell Line B16-F1
A cell suspension liquid prepared by suspending B16-F1 cells (ATCC, CRL-6323) in PBS at 2.0×10^6 cells/mL was subcutaneously inoculated into 5-week-old female mice (C57BL/6J from Charles River Laboratories Japan, Inc.) in a volume of 50 μL. 5 days after the inoculation, the mice were grouped in such a manner that there was substantially no difference in tumor volume between groups, and administration of the test compound was started. The test was conducted with a solvent group and a test compound administration group each having 10 mice. 0.5% methylcellulose (Shin-Etsu Chemical Co., Ltd.) was orally administered to the solvent group, and 0.5% methylcellulose mixed with the test compound was orally administered to the test compound administration group. The administration was performed for 10 days once daily, and the tumor diameter and the body weight were measured twice a week. The following expression was used for calculation of the tumor volume.
[tumor volume (mm^3)]=[tumor major diameter […]]×[tumor minor diameter (mm)]^2×0.5
The relative tumor growth inhibition (%) of the test compound was calculated, where the tumor volume of the solvent group immediately before the start of administration was set to 100% inhibition, and the tumor volume of the solvent group on the day after the last administration was set to 0% inhibition. […] In the table, Ex represents the number of each Example described below.

human recombinant DGK ξ = human recombinant DGK ξ (Homo sapiens (Human), UniProt Q13574); test: Evaluation of DGK ξ inhibitory effect (ADP-Glo Kinase Assay); assay type: biochemical; details: ADP-Glo luminescence
Procedure, shortened: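 Enzyme was pre-incubated with compound for 15 min at room temperature in Tris-HCl pH 7.5 with MgCl2, DTT and BSA. The reaction ran 30 min after adding a substrate mix (pre-addition: 150 μM 1-oleoyl-2-acetyl-sn-glycerol, 480 μM phosphatidylserine, 150 μM ATP), with ADP-Glo luminescence read-out. IC50 came from Sigmoid-Emax regression, with solvent as 0% and no-enzyme as 100% inhibition.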

Chain of human recombinant DGK ξ (Q13574 whole entry): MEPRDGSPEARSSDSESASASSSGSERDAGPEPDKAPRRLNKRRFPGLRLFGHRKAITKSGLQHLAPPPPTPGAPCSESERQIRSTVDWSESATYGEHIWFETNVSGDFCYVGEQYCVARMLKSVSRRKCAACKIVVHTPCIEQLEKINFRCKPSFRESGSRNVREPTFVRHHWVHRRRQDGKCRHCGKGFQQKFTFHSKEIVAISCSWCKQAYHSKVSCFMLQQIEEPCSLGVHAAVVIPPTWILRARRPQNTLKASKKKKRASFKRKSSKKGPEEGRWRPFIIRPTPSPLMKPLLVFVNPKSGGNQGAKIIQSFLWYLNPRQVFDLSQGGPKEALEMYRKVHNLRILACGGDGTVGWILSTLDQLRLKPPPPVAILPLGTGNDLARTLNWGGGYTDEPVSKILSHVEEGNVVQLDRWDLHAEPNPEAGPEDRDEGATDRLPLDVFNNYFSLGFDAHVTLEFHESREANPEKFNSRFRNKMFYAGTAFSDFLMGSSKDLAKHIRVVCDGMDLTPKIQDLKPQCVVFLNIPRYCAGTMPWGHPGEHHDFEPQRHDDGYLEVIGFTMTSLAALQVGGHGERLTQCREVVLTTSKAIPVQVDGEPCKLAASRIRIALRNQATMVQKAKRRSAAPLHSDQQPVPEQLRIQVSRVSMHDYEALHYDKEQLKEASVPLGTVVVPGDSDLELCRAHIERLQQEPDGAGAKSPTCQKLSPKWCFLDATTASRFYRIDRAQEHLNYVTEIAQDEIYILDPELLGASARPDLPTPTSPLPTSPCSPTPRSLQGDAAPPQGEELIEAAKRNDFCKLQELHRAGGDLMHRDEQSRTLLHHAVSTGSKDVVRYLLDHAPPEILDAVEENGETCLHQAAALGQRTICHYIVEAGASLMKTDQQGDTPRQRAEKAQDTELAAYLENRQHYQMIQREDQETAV

| SMILES | EC (10-fold increase) [1] | inhibition in vivo at 0.03 mg/kg (B16-F1 cells; 0.03 mg/kg orally once daily for 10 days) | pIC50 (human recombinant DGK ξ) | inhibition in vivo at 0.3 mg/kg (B16-F1 cells) |
| --- | --- | --- | --- | --- |
| NC[C@@H]1CCCN(c2c(NC(=O)c3ccn(CC(F)F)n3)ccc(Oc3ccccc3F)c2C(F)(F)F)C1 [Example 1, monohydrochloride] | 0.11 µM | 35% | – | – |
| CN1CCN(c2c(NC(=O)c3ccn(CC(F)F)n3)ccc(Oc3ccccc3Cl)c2C(F)(F)F)C[C@@H]1CN [Example 13] | 0.34 µM | – | 7.74 | 36% |
| CN1CCN(c2c(NC(=O)c3ccn(CC(F)F)n3)ccc(Oc3ccccc3Cl)c2Cl)C[C@@H]1CN [Example 20] | 0.036 µM | – | 7.70 | 33% |
| N[C@@H]1CCN2CCN(c3c(NC(=O)c4coc(-c5ccnnc5)n4)ccc(Oc4ccccc4F)c3C(F)(F)F)C[C@@H]12 [Example 80] | 0.46 µM | – | 7.35 | 31% |
